Data published in US20190211020A1 (Agency for Science, Technology and Research, priority 2012, published 2019).
Where two headings read alike, the source gives them in different places.

Assays:
[1] = Pharmacokinetics assays (plasma and brain); format: in vivo; parameters: AUC(0-t) / AUC(0-inf): concentration or dose not given beside the values; details: for Plasma/Brain Ratio: in vivo; for AUC(0-t): read-out: Plasma AUC last; for Cmax: species, dose and route not given
[2] = test system: K562 cells (myelogenous leukemia) over-expressing eIF4E; experiment: Cell cytotoxicity assay (CellTiter-Glo), K562; format: cell-based; details: for IC50: Homo sapiens, cell viability; for change of IC50 when treatment duration was extended from 48 hours to 6 days, K562: K562 cells over-expressing eIF4E
Description: (§1) Cancer cell lines, MV-4-11 (leukemia), P116.c139 (acute T cell leukemia) and D1.1 (acute T cell leukemia), were purchased from ATCC and cultured according to supplier's recommendations. K562 cells (myelogenous leukemia) over-expressing eIF4E, were also used for the cytotoxicity assay. For cells treated for 48 hours, 5000 cells were seeded in 70 μl of growth medium in black, flat-bottom 96-well plate. For cells treated for six days, 1000 cells were seeded in 70 μl of growth medium in black, flat-bottom 96-well plate. […] 50 μl of the diluted compounds was added to the cells and incubated at 37° C. in 5% CO2. After 48 hours or six days treatment, cell viability was determined by CellTiter-Glo Luminescent Cell Viability Assay (Promega, Madison, Wis.). 120 μl of the reagent was added to the cells and luminescence was measured using Tecan Safire Reader. Data was analysed with Graphpad Prism software and the figures represented indicate the half maximal inhibitory concentration (IC50). Error bars denote standard deviation (SD).

MV-4-11 (leukemia) = experiment: Cell cytotoxicity assay (CellTiter-Glo), MV-4-11; format: cell-based; details: Homo sapiens, cell viability
Description: as §1

[3] = test system: D1.1 (acute T cell leukemia); experiment: Cell cytotoxicity assay (CellTiter-Glo), D1.1; format: cell-based; details: for IC50: T-cell, cell viability
Description: as §1

[4] = test system: eIF4E Ser209 phosphorylation in Hela cells; experiment: MNK cell-based assay (AlphaScreen SureFire, eIF4E Ser209 phosphorylation); details: Homo sapiens; eIF4E Ser209 phosphorylation, Hela cells, 2 hours; read-out: IC50 Hela
In short: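 Hela cells (30,000/well) exposed to test compound in serum-free medium for 2 h at 37 °C, then lysed. Phospho-Ser209 eIF4E quantified by AlphaScreen SureFire; IC50 obtained by non-linear regression of signal versus log compound concentration.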

[5] = test system: P116.c139 (acute T cell leukemia); experiment: Cell cytotoxicity assay (CellTiter-Glo), P116.c139; format: cell-based; details: for IC50: T-cell, cell viability
Description: as §1

[6] = brain, read-out: Brain T1/2 (converted)
[7] = plasma, read-out: Plasma T1/2 (converted)
[8] = K562, 144 h, 6 days, read-out: IC50 after 6 days of treatment, K562
[9] = K562, 48 hours, read-out: IC50 after 48 hours of treatment, K562
[10] = MV4-11, 144 h, 6 days, read-out: IC50 after 6 days of treatment, MV-4-11
[11] = MV4-11, 48 hours, read-out: IC50 after 48 hours of treatment, MV-4-11
[12] = 144 h, 6 days, read-out: IC50 after 6 days of treatment, D1.1
[13] = 48 hours, read-out: IC50 after 48 hours of treatment, D1.1
[14] = 144 h, 6 days, read-out: IC50 after 6 days of treatment, P116.c139
[15] = 48 hours, read-out: IC50 after 48 hours of treatment, P116.c139

| Structure (SMILES) | Brain AUC inf ([1]; brain) | Brain AUC last ([1]; brain) | Brain Cmax ([1]; brain) | half-life [1, 6] | Tmax ([1]; brain, read-out: Brain Tmax) | Plasma/Brain Ratio [1] | AUC(0-inf) ([1]; plasma) | AUC(0-t) ([1]; plasma) | half-life [1, 7] | Tmax ([1]; plasma, read-out: Plasma Tmax) | Cmax ([1]; plasma) | IC50 [2, 8] | IC50 [2, 9] | change of IC50 when treatment duration was extended from 48 hours to 6 days, K562 [2] | IC50 (MV-4-11 (leukemia); [10]) | IC50 (MV-4-11 (leukemia); [11]) | change of IC50 when treatment duration was extended from 48 hours to 6 days, D1.1 [3] | IC50 [3, 12] | IC50 [3, 13] | change of IC50 when treatment duration was extended from 48 hours to 6 days, P116.c139 [5] | also measured |
| --- | --- | --- | --- | --- | --- | --- | --- | --- | --- | --- | --- | --- | --- | --- | --- | --- | --- | --- | --- | --- | --- |
| N#Cc1ccc(-c2cnn3ccc(-c4ccc(C(=O)N5CCOCC5)cc4)nc23)cc1 [Entry 8] | 29267 ng·h/g | 29166 ng·h/g | 3967 ng/g | 158 min | 120 min | 0.53 | 55100 ng·h/mL | 54800 ng·h/mL | 167 min | 30 min | 5970 ng/mL | – | – | – | – | – | – | – | – | – | – |
| CC(=O)Nc1cc(-c2ccc3ncc(-c4ccc(C#N)cc4)n3c2)ccc1C(=O)N1CCOCC1 [Entry 9] | 161 ng·h/g | 156 ng·h/g | 106 ng/g | 45.6 min | 30 min | 0.03 | 5720 ng·h/mL | 5720 ng·h/mL | 88.2 min | 15 min | 3860 ng/mL | – | – | – | – | – | – | – | – | – | – |
| N#Cc1ccc(-c2cnc3cnc(-c4ccc(C(=O)N5CCOCC5)cc4)cn23)cc1 [Entry 10] | 775 ng·h/g | 754 ng·h/g | 469 ng/g | 41.4 min | 60 min | 0.06 | 12800 ng·h/mL | 12700 ng·h/mL | 66.6 min | 30 min | 6400 ng/mL | – | – | – | – | – | – | – | – | – | – |
| CN1CCN(C2CCN(C(=O)c3ccc(-c4ccc5ncc(-c6ccc(C#N)cc6)n5c4)cc3)CC2)CC1 [Example 133, 4-(6-(4-(4-(4-methylpiperazin-1-yl)piperidine-1-carbonyl)phenyl)imidazo[1,2-a]pyridin-3-yl)benzonitrile] | – | – | – | – | – | – | – | – | – | – | – | 16 µM | 23 µM | not influenced by the treatment duration | 1.5 µM | 2.8 µM | not influenced by the treatment duration | 11.2 µM | 15.8 µM | decrease the IC50 by more than half-fold | IC50 [4]: < 1 µM; IC50 [5, 14]: 4 µM; IC50 [5, 15]: 10.9 µM |
| CN1CCN(C(=O)c2ccc(-c3ccc4ncc(-c5ccc(O)cc5)n4c3)cc2)CC1 [Example 175, (4-(3-(4-hydroxyphenyl)imidazo[1,2-a]pyridin-6-yl)phenyl)(4-methylpiperazin-1-yl)methanone] | – | – | – | – | – | – | – | – | – | – | – | 21.2 µM | 18.2 µM | not influenced by the treatment duration | 0.3 µM | 0.9 µM | not influenced by the treatment duration | 10.1 µM | 12.3 µM | decrease the IC50 by more than half-fold | IC50 [5, 14]: 5.7 µM; IC50 [5, 15]: 12.5 µM |
